Test results taken from PubChem BioAssay (NCI).
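Compound exposure: 48 hours, 5 concentrations, 96-well plates. The concentration for full growth arrest is given as TGI.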

Columns and labels:
Assay in all cases: DTP human tumour cell line panel, 48 h
[1] = test system: SK-OV-3 ovarian
[2] = test system: HT29 colon
[3] = test system: RPMI-8226 leukemia
[4] = test system: SNB-19 CNS
[5] = test system: SN12C renal
[6] = test system: SK-MEL-2 melanoma
[7] = test system: 786-0 renal
[8] = test system: SF-539 CNS
[9] = test system: SW-620 colon
[10] = test system: OVCAR-5 ovarian
[11] = test system: HOP-92 NSCLC
[12] = test system: HCT-15 colon
[13] = test system: KM20L2 colon
[14] = test system: NCI-H23 lung
[15] = test system: SK-MEL-28 melanoma
[16] = test system: MALME-3M melanoma
[17] = test system: TK-10 renal
[18] = test system: M19-MEL melanoma
[19] = test system: MOLT-4 leukemia
[20] = test system: ACHN renal
[21] = test system: U251 CNS
[22] = test system: OVCAR-3 ovarian
[23] = test system: A549 NSCLC
[24] = test system: XF 498 CNS
[25] = test system: RXF 393 renal
[26] = test system: SF-295 CNS
[27] = test system: HCT-116 colon
[28] = test system: HCC-2998 colon
[29] = test system: SF-268 CNS
[30] = test system: HOP-62 NSCLC
[31] = test system: UACC-62 melanoma
[32] = test system: CCRF-CEM leukemia
[33] = test system: NCI-H460 lung
[34] = test system: SR leukemia
[35] = test system: LXFL 529 NSCLC
[36] = test system: UACC-257 melanoma
[37] = test system: HOP-18 NSCLC
[38] = test system: COLO 205 colon
[39] = test system: NCI-H226 lung
[40] = test system: DLD-1 colon
[41] = test system: UO-31 renal
[42] = test system: IGROV1 ovarian
[43] = test system: EKVX NSCLC
[44] = test system: OVCAR-8 ovarian
[45] = test system: SNB-75 CNS
[46] = test system: DMS 273 small cell lung
[47] = test system: HL-60(TB) leukemia
[48] = test system: A498 renal
[49] = test system: LOX IMVI melanoma
[50] = test system: K-562 leukemia
[51] = test system: SNB-78 CNS
[52] = test system: NCI-H522 lung
[53] = test system: OVCAR-4 ovarian
[54] = test system: SK-MEL-5 melanoma
[55] = test system: KM12 colon
[56] = test system: CAKI-1 renal
[57] = test system: M14 melanoma

Measured: TGI

N#Cc1c(-c2ccccc2)c(-c2ccccc2)cc2c(=O)c3ccc(Cl)cc3[nH]c12
not listed: [48] | [49] | [50] | [51] | [52] | [53] | [54] | [55] | [56] | [57]
> 100 µM: all other assays above

CCOC(=O)C[C@@]12CCCN[C@]1(C)CCc1ccccc12
not listed: [36] | [38] | [39] | [46]
> 100 µM: all other assays above
